Assay results: patent publication US20110065706A1, “Therapeutic Agents 812” (AstraZeneca AB, priority 2009, published 2011)

Target: T1, human GPR119 (Homo sapiens, UniProt Q8TDV5)
T1 construct: expressed in transfected cells; host or cells: HEK 293s
T1 sequence (Q8TDV5 1-335): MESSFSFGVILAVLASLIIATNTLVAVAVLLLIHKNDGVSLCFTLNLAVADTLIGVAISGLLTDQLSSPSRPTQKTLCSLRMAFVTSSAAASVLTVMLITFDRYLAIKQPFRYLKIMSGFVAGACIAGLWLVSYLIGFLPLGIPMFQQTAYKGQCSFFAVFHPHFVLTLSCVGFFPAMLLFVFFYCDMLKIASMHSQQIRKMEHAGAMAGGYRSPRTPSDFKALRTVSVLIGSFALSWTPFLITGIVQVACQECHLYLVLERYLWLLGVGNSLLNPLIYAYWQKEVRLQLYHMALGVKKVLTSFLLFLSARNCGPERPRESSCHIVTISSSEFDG
Assay: Cyclic AMP (HTRF cAMP) assay for human GPR119, Method A
Assay type: cell-based
Conditions: HEK293S, 0.75 h; Method A; HEK 293s cells over-expressing human GPR119; percent effect at top concentration 30 μM relative to maximum (50 μM Oleoylethanolamide) and minimum (1% DMSO) controls

activation at 30 µM [%] | Structure (SMILES)
48 | CC(C)c1nc(N2CCN(c3ncc(OCc4ccc(S(C)(=O)=O)cc4)cn3)CC2)no1 [Example 87, 5-Isopropyl-3-(4-(5-(4-(methylsulfonyl)benzyloxy)pyrimidin-2-yl)piperazin-1-yl)-1,2,4-oxadiazole]
131 | CC(C)(C)OC(=O)N1CCN(c2ncc(OCc3ccc(-n4cncn4)cc3)cn2)CC1 [Example 2, tert-butyl 4-(5-(4-(1H-1,2,4-triazol-1-yl)benzyl-oxy)pyrimidin-2-yl)piperazine-1-carboxylate]
41 | C[C@@H]1CN(C(=O)OC2(C)COC2)CCN1c1ncc(OCc2ccc(S(C)(=O)=O)cc2)cn1 [Example 80, (R)-3-methyloxetan-3-yl 3-methyl-4-(5-(4-(methylsulfonyl)benzyloxy)pyrimi-din-2-yl)piperazine-1-carboxylate]
31 | CS(=O)(=O)c1ccc(COc2cnc(N3CCN(C(=O)OC4COC4)CC3)nc2)cc1 [Example 75, Oxetan-3-yl 4-(5-(4-(methylsulfonyl)benzyloxy)pyrimidin-2-yl)piperazine-1-carboxylate]
82 | Cc1cc(S(C)(=O)=O)ccc1COc1cnc(N2CCN(C(=O)OC(C)(C)C)CC2)nc1 [Example 33, tert-butyl 4-(5-(2-methyl-4-(methylsulfonyl)benzyloxy)pyrimidin-2-yl)piperazine-1-carboxylate]

Same assay, conditions: human GPR119 cAMP assay; top concentration 30 μM

significant activity at a top concentration of 30 μM | Structure (SMILES)
did not show significant activity | CS(=O)(=O)c1ccc(COc2cnc(N3CCN(C(=O)OC4CCOC4)CC3)nc2)cc1 (stereo not drawn) [tetrahydrofuran-3-yl 4-[5-[(4-methylsulfonylphenyl)methoxy]pyrimidin-2-yl]piperazine-1-carboxylate]
